Measured values reported in patent US10543189B2, “2-acetylnaphtho[2,3-b]furan -4,9-dione for use on treating cancer” (Boston Biomedical, Inc., priority 2013, dated 2020).
Values joined by “and” are separate entries in the source; they are usually repeats but may differ in a detail not shown here. Identical values can stand only once.

What was measured:
[1] = tested on: panel of cancer cells; test: In vitro screening of a panel of cancer cells; assay type: cell-based
From the text: Understanding the clinical relevance of the cancer stemness markers and identifying their predictive response to the Compound of the Invention is used herein to assist clinical development by selecting patients that will most likely to derive clinical benefit. In some embodiments, the methods provided herein use one or more well-known cancer stemness marker(s), such as, for example, the expression of p-STAT3 and/or other cancer stem cell related proteins such as β-catenin and NANOG. All these proteins can be easily detected using any of a variety of art-recognized techniques. In some embodiments, the cancer sternness marker is detected with immunohistochemistry with antibodies. Using the archival tissue samples collected from the phase I trial with the Compound of the Invention, the patient response to the Compound of the Invention was analyzed based on biomarker status. […] A significant improvement in survival was detected for patients with nuclear β-Catenin localization compared with patients having β-catenin localized to the cell membrane, HR=0.043, p value <0.001. As further evidence, in an in vitro study screening a panel of cancer cells, the cell lines with nuclear β-Catenin show a lower IC50 for the Compound of the Invention. […] Thus, STAT3 activation is involved in nuclear β-catenin regulation. […]

[2] = tested on: CD44^high cells (FaDu); test: CD44high sphere growth; assay type: cell-based; details: FACS-isolated from FaDu, sphere culture, five days of treatment, FIG. 5
Procedure: CD44^high cells were isolated by FACS (FaDu) and were cultured in the absence of attachment and serum for 5 days to form primary spheres. Primary spheres were then dissociated in Accumax (eBioscience, San Diego, Calif.) to single cells, and were cultured as above for 72 hours before the addition of the indicated concentrations of therapeutic agents. After five days of treatment, representative sphere images were captured.
CD44^high cells were isolated by FACS (FaDu) and their growth was blocked by a Compound of the Invention (FIG. 5).

[3] = tested on: phosphorylated STAT3 (p-STAT3); test: Immunohistochemistry of CRC patient tumor tissue for p-STAT3; assay type: in vivo, human; details: 100 mg/kg QD (single daily dosage), FIG. 3A
Procedure: CRC patient's archival tumor tissue samples were analyzed through immunohistochemistry (IHC) using labeled antibodies against phosphorylated STAT3 (p-STAT3). […] For instance, 40% of the patients with high p-STAT3 levels before treatment survived longer than 100 weeks whereas only 10% of those with low or no p-STAT3 levels before treatment survived beyond 100 weeks. This further confirms that the Compound of the Invention downregulates that STAT3 pathway, and that the STAT3 pathway is implicated in colorectal cancers.

[4] = Pharmacokinetics when taken fasting, with milk or with food; assay type: in vivo, human; details: for Tmax: human, in vivo, oral
Procedure: In yet another suitable dosing regimen, Compound 1 was administered with a fluid, e.g., a milk or water, with empty stomach which improves pharmacokinetical exposure (Table 12). Counterintuitively, milk helped patients with gastrointestinal adverse effects.
In yet another suitable dosing regimen, Compound 1 was administered with food which delayed the Tmax (Table 13).

Q: For `CC(=O)c1cc2c(o1)C(=O)c1ccccc1C2=O` [Compound 1, 2-acetylnaphtho[2,3-b]furan-4,9-dione], which “IC50 in cell lines with nuclear β-Catenin” value [1] is on record?
A: Its value is “lower IC50”.

Q: And the “CD44^high cells growth” value [2]?
A: The value was “blocked”.

Q: What about the “p-STAT3 in the patient tissue after treatment (IHC)” value [3] of the same molecule?
A: Its value is “almost no longer any detectable p-STAT3”.

Q: And the Tmax ([4]; Patient 20, Fasting)?
A: Its Tmax is 2 h.

Q: What about the Tmax ([4]; Patient 20, With Food) of the same molecule?
A: The Tmax was 8 h.

Q: What about the Tmax ([4]; Patient 20, With Milk) of the same molecule?
A: The Tmax was 2 h.

Q: And the Tmax ([4]; Patient 21, Fasting)?
A: The Tmax was 6 h.

Q: What about the Tmax ([4]; Patient 21, With Food) of the same molecule?
A: The Tmax was 6 h.

Q: What about the Tmax ([4]; Patient 21, With Milk) of the same molecule?
A: Its Tmax is 6 h.

Q: What about the Tmax ([4]; Patient 22, Fasting) of the same molecule?
A: Its Tmax is 8 h.

Q: What about the Tmax ([4]; Patient 22, With Food) of the same molecule?
A: Its Tmax is 10 h.

Q: And the Tmax ([4]; Patient 22, With Milk)?
A: Its Tmax is 8 h.

Q: And the Tmax ([4]; Patient 24, With Food)?
A: Its Tmax is 10 h.

Q: And the Tmax ([4]; Patient 24, With Milk)?
A: The Tmax was 6.3 h.

Q: What about the Tmax ([4]; Patient 27, With Food) of the same molecule?
A: Its Tmax is 6 h.

Q: And the Tmax ([4]; Patient 27, With Milk)?
A: Its Tmax is 0.5 h.

Q: What about the Tmax ([4]; Patient 28, With Food) of the same molecule?
A: Its Tmax is 10 h.

Q: And the Tmax ([4]; Patient 28, With Milk)?
A: The Tmax was 6 h.

Q: And the “AUC0-24hrs Fold Change” value ([4]; with Milk versus Fasting)?
A: Its value is 1.56 and 1.55.

Q: And the “Cmax Fold Change” value ([4]; with Milk versus Fasting)?
A: The value was 1.52 and 1.13.
